From patent US20080146612A1, “Novel Biaromatic Compounds, Inhibitors of the P2X7-Receptor” (ASTRAZENECA AB, priority 2005, published 2008) come the findings set out here.

One data set concerns the target T1, P2X7 receptor (Homo sapiens, UniProt Q99572).
T1 construct: 200 μl of a suspension of THP-1 cells; endogenous in cells; host or cells: THP-1 cells
T1 sequence (Q99572 1-595): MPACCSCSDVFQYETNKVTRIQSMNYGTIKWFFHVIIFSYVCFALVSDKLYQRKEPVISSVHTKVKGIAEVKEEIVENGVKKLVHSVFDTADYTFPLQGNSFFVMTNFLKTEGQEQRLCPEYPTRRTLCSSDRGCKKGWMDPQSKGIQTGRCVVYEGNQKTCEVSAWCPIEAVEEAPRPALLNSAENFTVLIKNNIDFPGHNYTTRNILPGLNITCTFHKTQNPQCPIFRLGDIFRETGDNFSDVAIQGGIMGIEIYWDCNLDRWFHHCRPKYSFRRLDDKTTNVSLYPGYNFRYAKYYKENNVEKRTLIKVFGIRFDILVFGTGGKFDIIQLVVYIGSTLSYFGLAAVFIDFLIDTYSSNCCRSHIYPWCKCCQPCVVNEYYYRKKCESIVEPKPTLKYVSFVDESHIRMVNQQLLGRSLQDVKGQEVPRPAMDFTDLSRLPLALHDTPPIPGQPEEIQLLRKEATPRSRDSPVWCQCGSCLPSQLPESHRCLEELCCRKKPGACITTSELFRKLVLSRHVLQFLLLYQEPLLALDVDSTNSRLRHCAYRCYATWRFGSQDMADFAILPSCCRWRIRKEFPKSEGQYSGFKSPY
Briefly: P2X7 receptor antagonist test: bbATP-induced ethidium bromide fluorescence in THP-1 cells. The class given is cell-based. As to conditions: negative logarithm of the concentration of test compound necessary to reduce the bbATP agonist activity by 50%, 10^-5M bbATP solution, 37° C. for one hour. From the text: Certain compounds such as benzoylbenzoyl adenosine triphosphate (bbATP) are known to be agonists of the P2X7 receptor, effecting the formation of pores in the plasma membrane (Drug Development Research (1996), 37(3), p. 126). Consequently, when the receptor is activated using bbATP in the presence of ethidium bromide (a fluorescent DNA probe), an increase in the fluorescence of intracellular DNA-bound ethidium bromide is observed. The increase in fluorescence can be used as a measure of P2X7 receptor activation and therefore to quantif the effect of a compound on the P2X7 receptor.
In this manner, each of the title compounds of the Examples was tested for antagonist activity at the P2X7 receptor. Thus, the test was performed in 96-well flat bottomed microtitre plates, the wells being filled with 250 μl of test solution comprising 200 μl of a suspension of THP-1 cells (2.5×10^6 cells/ml) containing 10^−4M ethidium bromide, 25 μl of a high potassium buffer solution containing 10^−5M bbATP, and 25 μl of the high potassium buffer solution containing concentrations of test compound typically from 30 μM-0.001 μM. The plate was covered with a plastics sheet and incubated at 37° C. for one hour. The plate was then read in a Perkin-Elmer fluorescent plate reader, excitation 520 nm, emission 595 nm, slit widths: Ex 15 nm, Em 20 nm. […]
For `O=C(NCC1(O)CCCCCC1)c1cc(-c2ccccc2C(=O)O)ccc1Cl` [Example 2, 4′-Chloro-3′-[[[(1-hydroxycycloheptyl)methyl]amino]carbonyl]-[1,1′-biphenyl]-2-carboxylic acid], the IC50 (in general, the concentration at which inhibition is half-maximal) is 63.1 nM. On the same count and under the same terms, the same measure for `O=C(NCC1CCCCCC1)c1cc(-c2cccnc2N2CCC(C(=O)O)CC2)ccc1Cl` [Example 26, 1-[3-[4-Chloro-3-[[(cycloheptylmethyl)amino]carbonyl]phenyl]-2-pyridinyl]-4-piperidinecarboxylic acid]: 100 nM.

Tested on in a further data set: not given
Experiment: not given
Settings: not given
As to `O=C(NCC1CCCCCC1)c1cc(-c2cccnc2C(=O)O)ccc1Cl` [Example 10, 3-[4-Chloro-3-[[(cycloheptylmethyl)amino]carbonyl]phenyl]-2-pyridinecarboxylic acid], the melting point (commonly the temperature of the solid-liquid transition) was in the range of 166 to 168 °C. Compound `O=C(NCCC1CCCCC1)c1cc(-c2ccccc2C(=O)O)ccc1Cl` [Example 9, 4′-Chloro-3′-[[(2-cyclohexylethyl)amino]carbonyl]-[1,1′-biphenyl]-2-carboxylic acid] yielded a melting point of 191 to 193 °C. Still for that read-out and setting: the same measure for `O=C(NC[C@@H]1CCCCC[C@@H]1O)c1cc(-c2ccccc2C(=O)O)ccc1Cl` (relative stereo) [Example 8, 4′-Chloro-3′-[[[[cis-2-hydroxycycloheptyl]methyl]amino]carbonyl]-[1,1′-biphenyl]-2-carboxylic acid]: 193 to 195 °C. Take `O=C(NCC1(CO)CCCCCC1)c1cc(-c2ccccc2C(=O)O)ccc1Cl` [Example 14, 4′-Chloro-3′-[[[[1-(hydroxymethyl)cycloheptyl]methyl]amino]carbonyl]-[1,1′-biphenyl]-2-carboxylic acid]: the melting point was 175 to 177 °C. In turn, `Cc1ccc(-c2ccccc2C(=O)O)cc1C(=O)NCC1CCCCCC1` [Example 16, 3′-[[(Cycloheptylmethyl)amino]carbonyl]-4′-methyl-[1,1′-biphenyl]-2-carboxylic acid] returned a melting point of 188 to 189 °C. The same measure, in the same setting: the same measure for `CC1(C)[C@H]2CC[C@@H](CNC(=O)c3cc(-c4ccccc4C(=O)O)ccc3Cl)[C@@H]1C2` [Example 5, 4′-Chloro-3′-[[[[(1S,2R,5S)-6,6-dimethylbicyclo[3.1.1]hept-2-yl]methyl]amino]car-bonyl]-[1,1′-biphenyl]-2-carboxylic acid]: 170 to 172 °C; for `O=C(NCC1CCCCCC1)c1cc(-c2ncc(Cl)cc2C(=O)O)ccc1Cl` [Example 20, 5-Chloro-2-[4-chloro-3-[[(cycloheptylmethyl)amino]carbonyl]phenyl]-3-pyridinecarboxylic acid]: 176 to 179 °C; for `O=C(NCCC1CCCCC1)c1cc(-c2ncc(Cl)cc2C(=O)O)ccc1Cl` [Example 19, 5-Chloro-2-[4-chloro-3-[[(2-cyclohexylethyl)amino]carbonyl]phenyl]-3-pyridinecarboxylic acid]: 208 to 211 °C. As to `O=C(NCC1(O)CCCCC1)c1cc(-c2ccccc2C(=O)O)ccc1Cl` [Example 7, 4′-Chloro-3′-[[[(1-hydroxycyclohexyl)methyl]amino]carbonyl]-[1,1′-biphenyl]-2-carboxylic acid], the melting point is 202 to 204 °C. The same measure, in the same setting: the same measure for `O=C(NCC1(O)CCCCCC1)c1cc(-c2cccnc2N2CCC(C(=O)O)CC2)ccc1Cl` [Example 27, 1-[3-[4-Chloro-3-[[[(1-hydroxycycloheptyl)methyl]amino]carbonyl]phenyl]-2-pyridinyl]-4-piperidinecarboxylic acid]: 117 to 119 °C; for `O=C(NCC1CCCCCC1)c1cc(-c2ccccc2C(=O)O)ccc1Cl` [Example 6, 4′-Chloro-3′-[[(cycloheptylmethyl)amino]carbonyl]-[1,1′-biphenyl]-2-carboxylic acid]: 201 to 203 °C; for `C[C@@H](NC(=O)c1cc(-c2ccccc2C(=O)O)ccc1Cl)C1CCCCC1` [Example 12, 4′-Chloro-3′-[[[(1R)-1-cyclohexylethyl]amino]carbonyl]-[1,1′-biphenyl]-2-carboxylic acid]: 139 to 141 °C.

The compound `C[C@H](CNC(=O)c1cc(-c2ccccc2C(=O)O)ccc1Cl)c1ccccc1` [Example 4, 4′-Chloro-3′-[[[(2S)-2-phenylpropyl]amino]carbonyl]-[1,1′-biphenyl]-2-carboxylic acid] returned a melting point of 160 to 162 °C. Same read-out and setting: the same measure for `O=C(NCCC1CCCCC1)c1cc(-c2cccnc2N2CCC(C(=O)O)CC2)ccc1Cl` [Example 25, 1-[3-[4-Chloro-3-[[(2-cyclohexylethyl)amino]carbonyl]phenyl]-2-pyridinyl]-4-piperidinecarboxylic acid]: 116 to 120 °C. `O=C(NCC1CCCCCC1)c1cc(-c2ccc(Cl)c(C(=O)O)n2)ccc1Cl` [Example 23, 3-Chloro-6-[4-chloro-3-[[(cycloheptylmethyl)amino]carbonyl]phenyl]-2-pyridinecarboxylic acid] registered a melting point of 189 to 190 °C. For `O=C(NCC1(O)CCCCCC1)c1cc(-c2ccc(Cl)c(C(=O)O)n2)ccc1Cl` [Example 24, 3-Chloro-6-[4-chloro-3-[[[(1-hydroxycycloheptyl)methyl]amino]carbonyl]phenyl]-2-pyridinecarboxylic acid], the melting point was in the range of 146 to 149 °C. In turn, `O=C(NCC1(O)CCCCCC1)c1cc(-c2ncc(Cl)cc2C(=O)O)ccc1Cl` [Example 21, 5-Chloro-2-[4-chloro-3-[[[(1-hydroxycycloheptyl)methyl]amino]carbonyl]phenyl]-3-pyridinecarboxylic acid] yielded a melting point of 201 to 204 °C. For the compound `Cc1ccc(-c2ccc(Cl)c(C(=O)O)n2)cc1C(=O)NCC1CCCCCC1` [Example 18, 3-Chloro-6-[3-[[(cycloheptylmethyl)amino]carbonyl]-4-methylphenyl]-2-pyridinecarboxylic acid], the melting point is 177 to 178 °C. Consider `O=C(NCCc1ccccc1Cl)c1cc(-c2ccccc2C(=O)O)ccc1Cl` [Example 1, 4′-Chloro-3′-[[[2-(2-chlorophenyl)ethyl]amino]carbonyl]-[1,1′-biphenyl]-2-carboxylic acid], for which the melting point was 136 to 140 °C (dec.). Take `O=C(NCC1CCCCC1)c1cc(-c2ccccc2C(=O)O)ccc1Cl` [Example 3, 4′-Chloro-3′-[[(cyclohexylmethyl)amino]carbonyl]-[1,1′-biphenyl]-2-carboxylic acid]: the melting point was in the range of 212 to 214 °C.

With `O=C(NCCC1CCCCC1)c1cc(-c2ccc(Cl)c(C(=O)O)n2)ccc1Cl` [Example 22, 3-Chloro-6-[4-chloro-3-[[(2-cyclohexylethyl)amino]carbonyl]phenyl]-2-pyridinecarboxylic acid], the melting point lay within 189 to 190 °C. Same read-out and setting: the same measure for `O=C(NCCC1CCCCC1)c1cc(-c2cccnc2C(=O)O)ccc1Cl` [Example 11, 3-[4-Chloro-3-[[(2-cyclohexylethyl)amino]carbonyl]phenyl]-2-pyridinecarboxylic acid]: 104 to 107 °C. Consider `CC1(CNC(=O)c2cc(-c3ccccc3C(=O)O)ccc2Cl)CCCCCC1` [Example 13, 4′-Chloro-3′-[[[(1-methylcycloheptyl)methyl]amino]carbonyl]-[1,1′-biphenyl]-2-carboxylic acid], for which the melting point was in the range of 180 to 183 °C.
